{"source": "ChEMBL document CHEMBL1130471", "about": "“RES-701-1/endothelin-1 hybrid peptide having a potent binding activity for type B receptor” (Bioorg Med Chem Lett, 1997)"}
{"target": "T1, Endothelin-1 receptor (Bos taurus, UniProt P21450)", "T1 sequence (P21450 whole entry)": "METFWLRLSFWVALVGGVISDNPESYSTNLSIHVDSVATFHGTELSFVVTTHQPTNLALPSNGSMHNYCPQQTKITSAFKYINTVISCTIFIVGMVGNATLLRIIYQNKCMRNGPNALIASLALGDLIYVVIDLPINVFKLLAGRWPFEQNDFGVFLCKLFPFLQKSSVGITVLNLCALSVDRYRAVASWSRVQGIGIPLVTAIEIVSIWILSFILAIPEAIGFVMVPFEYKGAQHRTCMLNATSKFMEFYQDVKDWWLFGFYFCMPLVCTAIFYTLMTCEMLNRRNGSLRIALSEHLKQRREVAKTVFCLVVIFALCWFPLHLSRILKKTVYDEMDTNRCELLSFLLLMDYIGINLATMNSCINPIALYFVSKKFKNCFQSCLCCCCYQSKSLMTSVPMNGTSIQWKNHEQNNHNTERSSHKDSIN", "test": "Binding activity to ET-A receptor on bovine lung membrane was determined", "type": "tissue-based", "units": {"IC50": "µM"}}
{"compound": "CC[C@H](C)[C@H](NC(=O)[C@@H](NC(=O)[C@H](CC(=O)O)NC(=O)[C@H](CCC(N)=O)NC(=O)[C@H](Cc1c[nH]cn1)NC(=O)[C@H](C)NC(=O)[C@H](Cc1ccccc1)NC(=O)[C@H](Cc1ccc(O)cc1)NC(=O)[C@H](CC(C)C)NC(=O)[C@H](Cc1c[nH]c2ccccc12)NC(=O)[C@@H]1CC(=O)NCC(=O)N[C@@H](CC(N)=O)C(=O)N[C@@H](Cc2c[nH]c3ccccc23)C(=O)N[C@@H](Cc2c[nH]cn2)C(=O)NCC(=O)N[C@@H]([C@@H](C)O)C(=O)N[C@@H](C)C(=O)N2CCC[C@H]2C(=O)N1)C(C)C)C(=O)N[C@@H](Cc1c[nH]c2ccccc12)C(=O)O", "IC50": "> 0.1"}
{"compound": "C[C@@H]1NC(=O)[C@H]([C@@H](C)O)NC(=O)CNC(=O)[C@H](Cc2c[nH]cn2)NC(=O)[C@H](Cc2c[nH]c3ccccc23)NC(=O)[C@H](CC(N)=O)NC(=O)CNC(=O)C[C@@H](C(=O)N[C@@H](Cc2c[nH]c3ccccc23)C(=O)N[C@@H](Cc2ccccc2)C(=O)N[C@@H](Cc2ccccc2)C(=O)N[C@@H](CC(N)=O)C(=O)N[C@@H](Cc2ccc(O)cc2)C(=O)N[C@@H](Cc2ccc(O)cc2)C(=O)N[C@@H](Cc2c[nH]c3ccccc23)C(=O)O)NC(=O)[C@@H]2CCCN2C1=O", "IC50": "> 5"}
{"compound": "CC[C@H](C)[C@H](NC(=O)[C@H](CC(=O)O)NC(=O)[C@H](CC(C)C)NC(=O)[C@H](Cc1c[nH]cn1)NC(=O)[C@H](C)NC(=O)[C@H](Cc1ccc(O)cc1)NC(=O)[C@H](Cc1ccc(O)cc1)NC(=O)[C@@H](NC(=O)[C@H](Cc1c[nH]c2ccccc12)NC(=O)[C@@H]1CC(=O)NCC(=O)N[C@@H](CC(N)=O)C(=O)N[C@@H](Cc2c[nH]c3ccccc23)C(=O)N[C@@H](Cc2c[nH]cn2)C(=O)NCC(=O)N[C@@H]([C@@H](C)O)C(=O)N[C@@H](C)C(=O)N2CCC[C@H]2C(=O)N1)C(C)C)C(=O)N[C@H](C(=O)N[C@@H](Cc1c[nH]c2ccccc12)C(=O)O)[C@@H](C)CC", "IC50": "> 0.1"}
{"compound": "CC[C@H](C)[C@H](NC(=O)[C@H](CC(=O)O)NC(=O)[C@H](CC(C)C)NC(=O)[C@H](Cc1c[nH]cn1)NC(=O)[C@H](C)NC(=O)[C@H](Cc1ccccc1)NC(=O)[C@H](Cc1ccc(O)cc1)NC(=O)[C@@H](NC(=O)[C@H](Cc1c[nH]c2ccccc12)NC(=O)[C@@H]1CC(=O)NCC(=O)N[C@@H](CC(N)=O)C(=O)N[C@@H](Cc2c[nH]c3ccccc23)C(=O)N[C@@H](Cc2c[nH]cn2)C(=O)NCC(=O)N[C@@H]([C@@H](C)O)C(=O)N[C@@H](C)C(=O)N2CCC[C@H]2C(=O)N1)C(C)C)C(=O)N[C@H](C(=O)N[C@@H](Cc1c[nH]c2ccccc12)C(=O)O)[C@@H](C)CC", "IC50": "> 0.1"}
{"target": "T2, Endothelin receptor type B (Bos taurus, UniProt P28088)", "T2 sequence (P28088 whole entry)": "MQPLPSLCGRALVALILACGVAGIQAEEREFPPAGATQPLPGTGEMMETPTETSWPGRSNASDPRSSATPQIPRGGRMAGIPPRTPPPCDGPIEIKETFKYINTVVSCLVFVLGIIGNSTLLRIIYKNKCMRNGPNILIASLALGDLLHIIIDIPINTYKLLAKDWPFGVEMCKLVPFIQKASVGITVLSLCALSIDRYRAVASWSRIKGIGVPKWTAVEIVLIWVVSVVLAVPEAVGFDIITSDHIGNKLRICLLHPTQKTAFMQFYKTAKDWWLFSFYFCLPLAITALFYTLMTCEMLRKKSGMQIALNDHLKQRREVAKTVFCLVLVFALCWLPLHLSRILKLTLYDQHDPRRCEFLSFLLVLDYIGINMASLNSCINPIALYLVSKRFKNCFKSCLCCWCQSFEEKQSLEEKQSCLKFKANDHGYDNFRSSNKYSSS", "test": "Binding activity to ET-B receptor on bovine cerebellum membrane", "type": "tissue-based", "units": {"IC50": "µM"}}
{"compound": "H-WFFNYYW-OH", "IC50": 3}
{"compound": "H-VYYCHLDIIW-OH", "IC50": 3}
{"compound": "H-LYFCHQDVIW-OH", "IC50": 3}
{"compound": "C[C@@H]1NC(=O)[C@H]([C@@H](C)O)NC(=O)CNC(=O)[C@H](Cc2c[nH]cn2)NC(=O)[C@H](Cc2c[nH]c3ccccc23)NC(=O)[C@H](CC(N)=O)NC(=O)CNC(=O)[C@H](Cc2c[nH]c3ccccc23)NC(=O)[C@H](Cc2ccc(O)cc2)NC(=O)[C@H](Cc2ccc(O)cc2)NC(=O)[C@H](CC(N)=O)NC(=O)[C@H](Cc2ccccc2)NC(=O)[C@H](Cc2ccccc2)NC(=O)[C@H](Cc2c[nH]c3ccccc23)NC(=O)[C@H](CC(=O)O)NC(=O)[C@@H]2CCCN2C1=O", "IC50": "> 5"}
{"compound": "H-VYFSHLDIIW-OH", "IC50": 1}
{"compound": "CC[C@H](C)[C@H](NC(=O)[C@H](CC(=O)O)NC(=O)[C@H](CC(C)C)NC(=O)[C@H](Cc1cnc[nH]1)NC(=O)[C@@H]1CSSC[C@H](N)C(=O)N[C@@H](CO)C(=O)N[C@H]2CSSC[C@H](NC(=O)[C@H](CCC(=O)O)NC(=O)[C@H](CCCCN)NC(=O)[C@H](CC(=O)O)NC(=O)[C@H](CCSC)NC(=O)[C@H](CC(C)C)NC(=O)[C@H](CO)NC(=O)[C@H](CO)NC2=O)C(=O)N[C@@H](C(C)C)C(=O)N[C@@H](Cc2ccc(O)cc2)C(=O)N[C@@H](Cc2ccccc2)C(=O)N1)C(=O)N[C@H](C(=O)N[C@@H](Cc1c[nH]c2ccccc12)C(=O)O)[C@@H](C)CC", "note": "[ENDOTHELIN]", "IC50": 1}
{"compound": "C[C@H](NC(=O)[C@@H](NC(=O)CNC(=O)[C@H](Cc1c[nH]cn1)NC(=O)[C@H](Cc1c[nH]c2ccccc12)NC(=O)[C@H](CC(N)=O)NC(=O)CN)[C@@H](C)O)C(=O)N1CCC[C@H]1C(=O)N[C@@H](CC(=O)O)C(=O)N[C@@H](Cc1c[nH]c2ccccc12)C(=O)N[C@@H](Cc1ccccc1)C(=O)N[C@@H](Cc1ccccc1)C(=O)N[C@@H](CC(N)=O)C(=O)N[C@@H](Cc1ccc(O)cc1)C(=O)N[C@@H](Cc1ccc(O)cc1)C(=O)N[C@@H](Cc1c[nH]c2ccccc12)C(=O)O", "IC50": 5}
